# Non-standard residues stand in square brackets, D forms with d. Residues, ends and D or L forms follow the SMILES beside them. ξ: configuration not given here. *: point of attachment. ξF = NC(Cc1ccccc1)C(=O)O; Cbz = O=C(OCc1ccccc1)*; CH2Cl = ClC*
# How the values were obtained:
# ClpP1P2 = ClpP1P2 (Mycobacterium bovis, UniProt P0A527+P63784); experiment: cell-based; type: cell-based, M. bovis BCG; conditions: for IC50: 24 h, read-out: Bacterial Clp IC50
# bacterial proteasome = bacterial proteasome (Mycobacterium bovis, UniProt A1KKF3); experiment: cell-based; design: species or system M. bovis BCG
# M. bovis BCG = experiment: organism not typed; type: cell-based; conditions: 120 h, read-out: M. bovis MIC50
# M. tuberculosis H37Rv [1] = experiment: Turbidity-based growth inhibition (MIC50), M. tuberculosis H37Rv; type: cell-based; conditions: Mycobacterium tuberculosis, 120 h, 50% growth inhibition, 5 days, OD600
# M. tuberculosis H37Rv [2] = experiment: Minimum bactericidal concentration (MBC99) by CFU enumeration; type: cell-based; conditions: for MBC: Mycobacterium tuberculosis, H37RV, 120 h, concentration killing 99% of bacteria (100-fold kill), 5 days treatment
# in vitro = conditions: human
# human proteasome = human proteasome (Homo sapiens, UniProt P28074); experiment: cell-based
# bacterial proteasome, sequence (A1KKF3 whole entry, looked up): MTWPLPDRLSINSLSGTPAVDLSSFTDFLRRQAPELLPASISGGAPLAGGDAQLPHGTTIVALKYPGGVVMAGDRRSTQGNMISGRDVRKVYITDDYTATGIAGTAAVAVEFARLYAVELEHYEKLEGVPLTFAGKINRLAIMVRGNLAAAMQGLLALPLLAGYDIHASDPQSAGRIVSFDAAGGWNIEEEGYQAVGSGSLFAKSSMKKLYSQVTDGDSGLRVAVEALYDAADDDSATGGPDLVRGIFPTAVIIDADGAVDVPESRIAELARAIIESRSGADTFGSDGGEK
SMILES,loss of potency against ClpP1P2 compared to Bortezomib (ClpP1P2; 25 vs. 1.6 μM) [fold],IC50 (ClpP1P2) [µM],IC50 (bacterial proteasome) [µM],MIC50 (M. bovis BCG) [µM],MIC50 (M. tuberculosis H37Rv [1]) [µM],MBC (M. tuberculosis H37Rv [2]) [µM],reduction in bactericidal potency against M. tuberculosis (M. tuberculosis H37Rv [2]; compared to Bortezomib (MBC99)),selectivity ratio (in vitro),IC50 (human proteasome) [µM]
"CC(C)C[C@H](NC(=O)[C@H](Cc1ccccc1)NC(=O)c1cnccn1)C(=O)CCl [Pyr-FL-CMK, N-((S)-1-(((S)-1-chloro-5-methyl-2-oxohexan-3-yl)amino)-1-oxo-3-phenylpropan-2-yl)pyrazine-2-carboxamide]",~15,25,25,20,25,100,two-fold,≥ 20,> 500
"O=C(CNC(=O)OCc1ccccc1)NCC(=O)NC(Cc1ccccc1)C(=O)CCl (stereo not drawn) [Z-GGF-CMK, Carboxybenzyl-glycine-glycine-phenylalanine-CMK] (Cbz-Gly-Gly-[ξF]-CH2Cl)",–,50,50,30,30,–,–,–,> 500
"CC(C)C[C@H](NC(=O)CNC(=O)OCc1ccccc1)C(=O)NC(Cc1ccccc1)C(=O)CCl (stereo partly drawn) [Z-GLF-CMK, Carboxybenzyl-glycine-leucine-phenylalanine-CMK] (Cbz-Gly-Leu-[ξF]-CH2Cl)",–,25,35,20,20,200,–,–,> 500
"CC(C)C[C@H](NC(=O)[C@H](Cc1ccccc1)NC(=O)c1cnccn1)B(O)O [Pyr-FL-BA, Pyrazine-Phenylalanine-Leucine-Boronic acid]",–,1.6,0.8,0.8,4,50,–,–,–

# From publication PMC5406460 (Frontiers in Microbiology, 2017)
